In patent US5260300A, “Rapamycin carbonate esters as immuno-suppressant agents” (American Home Products Corporation, priority 1992, dated 1993):
“And” between values parts separate entries of the source, which are not always exact repeats. Equal entries are not always repeated. Where two headings read alike, the source gives them in different places.

How the values were obtained:
[1] = tested on: cells from the thymus of normal BALB/c mice (lymphocyte proliferation); assay: LAF assay: comitogen-induced thymocyte proliferation (inhibition of lymphocyte proliferation); format: cell-based
Description: Immunosuppressive activity was determined in an in vitro standard pharmacological test to measure lymphocyte proliferation (LAF). […] Thus in this assay, the invention compounds have LAF activity equal or greater than rapamycin and would therefore be expected to posses the immunological properties of rapamycin and be useful in the treatment of transplantation rejection and autoimmune diseases such as lupus, rheumatoid arthritis, diabetes mellitus, multiple sclerosis, psoriasis and the like. Because of the structural similarity of the invention compounds with rapamycin and other analogs having antifungal activity against several strains of Candida albicans, the compounds of this invention would also be expected to have antifungal properties. Similarly, the compounds of this invention would be expected to have antiinflammatory activity.
The comitogen-induced thymocyte proliferation procedure (LAF) was used as an in vitro measure of the immunosuppressive effects of representative compounds. Briefly, cells from the thymus of normal BALB/c mice are cultured for 72 hours with PHA and IL-1 and pulsed with tritiated thymidine during the last six hours. Cells are cultured with and without various concentrations of rapamycin, cyclosporin A, or test compound. Cells are harvested and incorporated; radioactivity is determined. Inhibition of lymphoproliferation is assessed in percent change in counts per minute from non-drug treated controls. The results are expressed by the following ratio, or as the percent inhibition of lymphoproliferation at a concentration of 1 μM or as the IC50. [formula]

[2] = cited from earlier work
[3] = tested on: Candida albicans; settings: particularly against Candida albicans; cited from earlier work
[4] = tested on: IgE-like antibodies; settings: in vivo; cited from earlier work
[5] = tested on: Candida albicans; settings: particularly against Candida albicans; cited from earlier work; remark: listed apart in the source
[6] = in vivo; cited from earlier work
[7] = tested on: tumor; settings: alone or in combination with picibanil; cited from earlier work
[8] = in vivo; cited from earlier work; remark: listed apart in the source
[9] = Mus musculus, Lymphocyte, 72 h, Table I, 72 hours culture with PHA and IL-1, read-out: IC50 Ester (IC50 data for LAF assay)

SMILES: COC(=O)O[C@@H]1/C(C)=C/[C@@H](C)C(=O)C[C@@H]([C@H](C)C[C@@H]2CC[C@@H](OC(=O)OC)[C@H](OC)C2)OC(=O)[C@@H]2CCCCN2C(=O)C(=O)[C@]2(O)O[C@@H](CC[C@H]2C)C[C@H](OC)/C(C)=C/C=C/C=C/[C@@H](C)C[C@@H](C)C(=O)[C@@H]1OC [Example 1A, 31, 42-O-Bis(methoxycarbonyl)rapamycin]
- IC50 [1, 9]: 0.87 nM

SMILES: COC(=O)O[C@@H]1CC[C@@H](C[C@@H](C)[C@@H]2CC(=O)[C@H](C)/C=C(\C)[C@@H](O)[C@@H](OC)C(=O)[C@H](C)C[C@H](C)/C=C/C=C/C=C(\C)[C@@H](OC)C[C@@H]3CC[C@@H](C)[C@@](O)(O3)C(=O)C(=O)N3CCCC[C@H]3C(=O)O2)C[C@H]1OC [Example 1B, 42-O-Methoxycarbonylrapamycin]
- IC50 [1, 9]: 2.5 nM

SMILES: CCOC(=O)O[C@@H]1/C(C)=C/[C@@H](C)C(=O)C[C@@H]([C@H](C)C[C@@H]2CC[C@@H](OC(=O)OCC)[C@H](OC)C2)OC(=O)[C@@H]2CCCCN2C(=O)C(=O)[C@]2(O)O[C@@H](CC[C@H]2C)C[C@H](OC)/C(C)=C/C=C/C=C/[C@@H](C)C[C@@H](C)C(=O)[C@@H]1OC [Example 2A, 31, 42-O-Bis(ethoxycarbonyl)rapamycin]
- IC50 [1, 9]: 2 nM

SMILES: CCOC(=O)O[C@@H]1CC[C@@H](C[C@@H](C)[C@@H]2CC(=O)[C@H](C)/C=C(\C)[C@@H](O)[C@@H](OC)C(=O)[C@H](C)C[C@H](C)/C=C/C=C/C=C(\C)[C@@H](OC)C[C@@H]3CC[C@@H](C)[C@@](O)(O3)C(=O)C(=O)N3CCCC[C@H]3C(=O)O2)C[C@H]1OC [Example 2B, 42-O-Ethoxycarbonylrapamycin]
- IC50 [1, 9]: 0.6 nM

SMILES: CO[C@H]1C[C@@H]2CC[C@@H](C)[C@@](O)(O2)C(=O)C(=O)N2CCCC[C@H]2C(=O)O[C@H]([C@H](C)C[C@@H]2CC[C@@H](OC(=O)Oc3ccccc3)[C@H](OC)C2)CC(=O)[C@H](C)/C=C(\C)[C@@H](O)[C@@H](OC)C(=O)[C@H](C)C[C@H](C)/C=C/C=C/C=C/1C [Example 3, 42-O-(Phenyloxycarbonyl)rapamycin]
- IC50 [1, 9]: 0.34 nM

SMILES: CO[C@H]1C[C@@H]2CC[C@@H](C)[C@@](O)(O2)C(=O)C(=O)N2CCCC[C@H]2C(=O)O[C@H]([C@H](C)C[C@@H]2CC[C@@H](OC(=O)Oc3ccc([N+](=O)[O-])cc3)[C@H](OC)C2)CC(=O)[C@H](C)/C=C(\C)[C@@H](O)[C@@H](OC)C(=O)[C@H](C)C[C@H](C)/C=C/C=C/C=C/1C [Example 4A, 42-O-(4-Nitrophenyloxycarbonyl)rapamycin]
- IC50 [1, 9]: 1 nM

SMILES: CO[C@H]1C[C@@H]2CC[C@@H](C)[C@@](O)(O2)C(=O)C(=O)N2CCCC[C@H]2C(=O)O[C@H]([C@H](C)C[C@@H]2CC[C@@H](OC(=O)Oc3ccc([N+](=O)[O-])cc3)[C@H](OC)C2)CC(=O)[C@H](C)/C=C(\C)[C@@H](OC(=O)Oc2ccc([N+](=O)[O-])cc2)[C@@H](OC)C(=O)[C@H](C)C[C@H](C)/C=C/C=C/C=C/1C [Example 4B, 31, 42-O-Bis(4-Nitrophenyloxycarbonyl)rapamycin]
- IC50 ([1]; Mus musculus, Lymphocyte, 72 h, read-out: IC50 Ester (IC50 data for LAF assay)): 23 nM

SMILES: C=CCOC(=O)O[C@@H]1CC[C@@H](C[C@@H](C)[C@@H]2CC(=O)[C@H](C)/C=C(\C)[C@@H](O)[C@@H](OC)C(=O)[C@H](C)C[C@H](C)/C=C/C=C/C=C(\C)[C@@H](OC)C[C@@H]3CC[C@@H](C)[C@@](O)(O3)C(=O)C(=O)N3CCCC[C@H]3C(=O)O2)C[C@H]1OC [Example 5, 42-O-(Prop-2-enyloxycarbonyl)rapamycin]
- IC50 [1, 9]: 1.6 nM

SMILES: CO[C@H]1C[C@@H]2CC[C@@H](C)[C@@](O)(O2)C(=O)C(=O)N2CCCC[C@H]2C(=O)O[C@H]([C@H](C)C[C@@H]2CC[C@@H](OC(=O)OCc3ccccc3)[C@H](OC)C2)CC(=O)[C@H](C)/C=C(\C)[C@@H](O)[C@@H](OC)C(=O)[C@H](C)C[C@H](C)/C=C/C=C/C=C/1C [Example 6, 42-O-(Benzyloxycarbonyl)rapamycin]
- IC50 [1, 9]: 0.32 nM

SMILES: C=CC[C@@H]1/C=C(\C)C[C@H](C)C[C@H](OC)[C@H]2O[C@@](O)(C(=O)C(=O)N3CCCC[C@H]3C(=O)O[C@H](/C(C)=C/[C@@H]3CC[C@@H](O)[C@H](OC)C3)[C@H](C)[C@@H](O)CC1=O)[C@H](C)C[C@@H]2OC [FK-506]
- effectiveness as immunosuppressive agent ([2]; useful in preventing transplant rejection): effective as immunosuppressive agents

SMILES: CO[C@H]1C[C@@H]2CC[C@@H](C)[C@@](O)(O2)C(=O)C(=O)N2CCCC[C@H]2C(=O)O[C@H]([C@H](C)C[C@@H]2CC[C@@H](O)[C@H](OC)C2)CC(=O)[C@H](C)/C=C(\C)[C@@H](O)[C@@H](OC)C(=O)[C@H](C)C[C@H](C)/C=C/C=C/C=C/1C [Rapamycin]
- antifungal activity in vitro [3]: antifungal activity, particularly against Candida albicans
- inhibition of transplant rejection ([2]; in vivo): effective in inhibiting transplant rejection
- inhibition of formation of IgE-like antibodies [4]: effectively inhibited
- IC50 ([1]; Table I, Rapamycin, comparative result beside each example ester, read-out: IC50 Rapamycin (IC50 data for LAF assay)): 3.9 nM and 3.8 nM and 6.3 nM
- antifungal activity in vivo [5]: antifungal activity, particularly against Candida albicans
- efficacy in adjuvant arthritis model [6]: effective
- antitumor activity [7]: antitumor activity
- efficacy in experimental allergic encephalomyelitis model [8]: effective
